Test results from US7776863B2, “Methods of treating HIV infection” (priority 2004, dated 2010).
pEC50: −log10 of the molar value.

How the values were obtained:
[1] = system: HIV-1 LAI; test: microbe, parasite or virus in culture; conditions: for Combination Indices at % HIV Inhibition (Confidence Interval) 50% / Combination Indices at % HIV Inhibition (Confidence Interval) 75% / Combination Indices at % HIV Inhibition (Confidence Interval) 90% / Overall Result (combined anti-HIV effect): Compound 1 + named drug; for Combination Indices at % HIV Inhibition (Confidence Interval) 50% / Combination Indices at % HIV Inhibition (Confidence Interval) 75% / Combination Indices at % HIV Inhibition (Confidence Interval) 90%: 95% confidence interval in parentheses; for Overall Result (combined anti-HIV effect): all ratios, MT-2 cells, HIV-1 LAI
Description: (§1) Virus and cell lines. The T-cell lines, MT-2 and PM-1 were obtained through the AIDS Research and Reference Reagent Program, NIAID, and were contributed by Dr. D. Richman and Dr. R. Gallo, respectively. Both cell lines were cultured in RPMI 1640 medium supplemented with 10% fetal bovine serum, 2 mM L-glutamine and sub-cultured twice a week. The LAI strain of HIV-1 was obtained from the Fred Hutchinson Cancer Research Center, and the Bal strain was from NIH. Both virus stocks were amplified and titered in MT-2 cells (LAI) and PM-1 cells (Bal) using a virus infectivity assay.
(§2) Drug Susceptibility and Cytotoxicity Assays. For drug susceptibility assays, MT-2 cells were infected with HIV-1 LAI (or PM-1 cells with HIV-1 Bal) at an MOI of 0.005, and seeded into 96-well microtiter plates (0.1×10^6 cells/ml) containing serial dilutions of test compounds. […] Each drug ratio consisted of an array of 3-fold serial dilutions, and was performed in quadruplicate. The plates were incubated at 37° C./5% CO2. The MT-2 cells infected with HIV-1 LAI were incubated for 5 days. On day-five post-infection, 20 μl from each well was harvested and quantitated by a reverse transcriptase (RT) assay, or in samples involving non-nucleoside RT inhibitors, an MTS assay. The PM-1 cells infected with HIV-1 Bal and used for studying the combinations with CCR5 inhibitors were incubated for six days. On day-six post-infection, 20 μl from each well was harvested, 20- and 50-fold diluted and quantitated by p24 assay. Cytotoxicity assays were performed using uninfected cells, exposed to the same drug combinations, and incubated for six days. Cell viability was determined by an MTS assay. The CC50 values were calculated by using the exponential form of the median effect equation as mentioned below for calculation of EC50.
(§3) Analysis of Drug Combination Effects. For determination of CI values, drugs were diluted in a fixed ratio and multiple ratios were analyzed. The drug serial dilutions spanned a range of concentrations near the EC50 value of each compound, so that equivalent antiviral activities could be compared. Concentration-response curves were estimated for each individual drug and every combination using the median-effect equation. The equation was fit using a nonlinear regression routine (Proc Nlin) in PC SAS version 8.01 (SAS Institute Inc., SAS Version 8.01, Cary, N.C.: SAS Institute Inc., 1990).
(§4) In this equation, Fa stands for “fraction affected,” and represents the fraction of the viral load that has been inactivated. […] ED50 is drug concentration that is expected to reduce the amount of virus by 50%, and m is a parameter that reflects the slope of the concentration-response curve.
(§5) To assess antiviral effects of different drug combination treatments, combination indices (CIs) were calculated according to Chou and Rideout. The combination index was computed as CI=[D]1/[Dm]1+[D]2/[Dm]2
(§6) In this equation [Dm]1 and [Dm]2 are the concentrations of drugs that would individually produce a specific level of effect, while [D]1 and [D]2 are the concentrations of drugs in combination that would produce the same level of effect.
(§7) Theoretically, additivity is implied if the CI is equal to one, synergy if the CI is less than one, and antagonism if the CI is greater than one. […] At best, we can construct a range that contains the likely values for the CI, given the noise in the data. In this report, these ranges are reported in parentheses next to each point estimate of the CI. […] If the range fell entirely above 1.0, we would infer antagonistic behavior. If the range were to include 1.0, we would infer additivity.
(§8) In carrying out the combination experiments below, the EC50 for Compound 1 and each comparator compound was determined during the course of each study, and used in the subsequent data analysis.

[2] = system: uninfected cells; test: Cytotoxicity assay of drug combinations, uninfected cells, MTS assay; type: cell-based; conditions: Compound 1 + other drug at the highest concentrations tested, 6 days
Description: as §2, with “Assays.” for “Assays. For drug susceptibility assays, MT-2 cells were infected with HIV-1 LAI (or PM-1 cells with HIV-1 Bal) at an MOI of 0.005, and seeded into 96-well microtiter plates (0.1×10^6 cells/ml) containing serial dilutions of test compounds.”, “The MT-2 cells infected with HIV-1 LAI were incubated for 5 days.” left out

[3] = system: HIV-1 Bal; test: Drug susceptibility assay, PM-1 cells infected with HIV-1 Bal, combinations with CCR5 inhibitors (p24 assay); type: cell-based; conditions: for Combination Indices at % HIV Inhibition (Confidence Interval) 50% / Combination Indices at % HIV Inhibition (Confidence Interval) 75% / Combination Indices at % HIV Inhibition (Confidence Interval) 90%: 95% confidence interval in parentheses
Description: as §1, §2, §3, §4, §5, §6, §7, §8

[4] = EC50 ratio 1:1 (Compound 1:comparator)
[5] = EC50 ratio 1:2.5 (Compound 1:comparator)
[6] = EC50 ratio 2.5:1 (Compound 1:comparator)
[7] = Human immunodeficiency virus 1, MT2, 120 h
[8] = Compound 1 + CCR5 inhibitor, EC50 ratio 1:1, PM-1 cells, HIV-1 Bal
[9] = Compound 1 + CCR5 inhibitor, EC50 ratio 1:2.5, PM-1 cells, HIV-1 Bal
[10] = Compound 1 + CCR5 inhibitor, EC50 ratio 2.5:1, PM-1 cells, HIV-1 Bal

## CON(Cc1ccc(F)cc1)C(=O)C=C(O)C(=O)O [Compound 2, 3-[(4-Fluorobenzyl)methoxycarbamoyl]-2-hydroxyacrylic acid]
[1]; [4]
  Combination Indices at % HIV Inhibition (Confidence Interval) 50%: 0.48 (0.39, 0.58)
  Combination Indices at % HIV Inhibition (Confidence Interval) 75%: 0.51 (0.37, 0.65)
  Combination Indices at % HIV Inhibition (Confidence Interval) 90%: 0.54 (0.31, 0.76)
[1]; [5]
  Combination Indices at % HIV Inhibition (Confidence Interval) 50%: 0.44 (0.36, 0.53)
  Combination Indices at % HIV Inhibition (Confidence Interval) 75%: 0.51 (0.37, 0.65)
  Combination Indices at % HIV Inhibition (Confidence Interval) 90%: 0.59 (0.34, 0.85)
[1]; [6]
  Combination Indices at % HIV Inhibition (Confidence Interval) 50%: 0.50 (0.36, 0.63)
  Combination Indices at % HIV Inhibition (Confidence Interval) 75%: 0.70 (0.44, 0.97)
  Combination Indices at % HIV Inhibition (Confidence Interval) 90%: 1.00 (0.41, 1.59)
[1]
  Overall Result (combined anti-HIV effect): moderate synergistic
[1]; listed as BMS-538203
  Overall Result (combined anti-HIV effect): Moderate-
[1]; [7]
  pEC50: 7.10
[2]
  Cytotoxicity of the drug combination: No significant cytotoxicity

## CCO/N=C(\c1ccc(Br)cc1)C1CCN(C2(C)CCN(C(=O)c3c(C)cc[n+]([O-])c3C)CC2)CC1 [SchC]
[3]; [8]
  Combination Indices at % HIV Inhibition (Confidence Interval) 50%: 0.19 (0.14, 0.25)
  Combination Indices at % HIV Inhibition (Confidence Interval) 75%: 0.46 (0.29, 0.63)
  Combination Indices at % HIV Inhibition (Confidence Interval) 90%: 1.12 (0.4, 1.83)
[3]; [9]
  Combination Indices at % HIV Inhibition (Confidence Interval) 50%: 0.50 (0.38, 0.61)
  Combination Indices at % HIV Inhibition (Confidence Interval) 75%: 0.92 (0.64, 1.21)
  Combination Indices at % HIV Inhibition (Confidence Interval) 90%: 1.74 (0.83, 2.65)
[3]; [10]
  Combination Indices at % HIV Inhibition (Confidence Interval) 50%: 0.08 (0.05, 0.11)
  Combination Indices at % HIV Inhibition (Confidence Interval) 75%: 0.21 (0.14, 0.28)
  Combination Indices at % HIV Inhibition (Confidence Interval) 90%: 0.54 (0.21, 0.88)
[3]; Compound 1 + CCR5 inhibitor, all ratios, PM-1 cells, HIV-1 Bal
  Overall Result (combined anti-HIV effect): Additive-
[3]; single drug, PM-1 cells infected with HIV-1 Bal, 6 days, p24 assay
  pEC50: 9.05

## Nc1ccn([C@H]2CC[C@@H](CO)O2)c(=O)n1 [Zalcitabine, zalcitabine]
[1]; [4]
  Combination Indices at % HIV Inhibition (Confidence Interval) 50%: 0.58 (0.46, 0.69)
  Combination Indices at % HIV Inhibition (Confidence Interval) 75%: 0.61 (0.43, 0.78)
  Combination Indices at % HIV Inhibition (Confidence Interval) 90%: 0.69 (0.39, 1.00)
[1]; [5]
  Combination Indices at % HIV Inhibition (Confidence Interval) 75%: 0.56 (0.44, 0.68)
  Combination Indices at % HIV Inhibition (Confidence Interval) 90%: 0.65 (0.43, 0.86)
[1]; [6]
  Combination Indices at % HIV Inhibition (Confidence Interval) 50%: 0.24 (0.22, 0.26)
  Combination Indices at % HIV Inhibition (Confidence Interval) 75%: 0.18 (0.16, 0.20)
  Combination Indices at % HIV Inhibition (Confidence Interval) 90%: 0.14 (0.12, 0.17)
[1]
  Overall Result (combined anti-HIV effect): Synergistic
[1]; [7]
  pEC50: 7.47

## Cc1cn([C@H]2C[C@H](N=[N+]=[N-])[C@@H](CO)O2)c(=O)[nH]c1=O [Zidovudine, zidovudine]
[1]; [4]
  Combination Indices at % HIV Inhibition (Confidence Interval) 50%: 0.25 (0.17, 0.34)
  Combination Indices at % HIV Inhibition (Confidence Interval) 75%: 0.53 (0.29, 0.78)
  Combination Indices at % HIV Inhibition (Confidence Interval) 90%: 1.13 (0.24, 2.02)
[1]; [5]
  Combination Indices at % HIV Inhibition (Confidence Interval) 50%: 0.46 (0.36, 0.56)
  Combination Indices at % HIV Inhibition (Confidence Interval) 75%: 0.52 (0.36, 0.68)
  Combination Indices at % HIV Inhibition (Confidence Interval) 90%: 0.59 (0.29, 0.89)
[1]; [6]
  Combination Indices at % HIV Inhibition (Confidence Interval) 50%: 0.37 (0.28, 0.47)
  Combination Indices at % HIV Inhibition (Confidence Interval) 75%: 0.49 (0.32, 0.67)
  Combination Indices at % HIV Inhibition (Confidence Interval) 90%: 0.66 (0.28, 1.05)
[1]
  Overall Result (combined anti-HIV effect): Additive-
[1]; [7]
  pEC50: 9.00

## enfuvirtide
[1]; [4]
  Combination Indices at % HIV Inhibition (Confidence Interval) 50%: 0.47 (0.40, 0.54)
  Combination Indices at % HIV Inhibition (Confidence Interval) 75%: 0.53 (0.42, 0.65)
  Combination Indices at % HIV Inhibition (Confidence Interval) 90%: 0.60 (0.39, 0.81)
[1]; [5]
  Combination Indices at % HIV Inhibition (Confidence Interval) 50%: 0.48 (0.37, 0.60)
  Combination Indices at % HIV Inhibition (Confidence Interval) 75%: 0.60 (0.40, 0.80)
  Combination Indices at % HIV Inhibition (Confidence Interval) 90%: 0.75 (0.35, 1.15)
[1]; [6]
  Combination Indices at % HIV Inhibition (Confidence Interval) 50%: 0.35 (0.29, 0.40)
  Combination Indices at % HIV Inhibition (Confidence Interval) 75%: 0.47 (0.37, 0.57)
  Combination Indices at % HIV Inhibition (Confidence Interval) 90%: 0.63 (0.40, 0.86)
[1]
  Overall Result (combined anti-HIV effect): Synergistic
[1]; LAI
  pEC50: 9.00
